The values that follow come from publication PMC9230797, “Integration of a Physiologically Based Pharmacokinetic and Pharmacodynamic Model for Tegoprazan and Its Metabolite: Application for Predicting Food Effect and Intragastric pH Alterations” (Pharmaceutics, 2022).

“And” between values parts separate entries of the source, which are not always exact repeats. Identical values can stand only once. Like-named read-outs stand apart in the source and are kept apart here.

Series [1] can be described thus: Caco-2 permeability assay. The format is in vitro ADME. To be noted: human. How it is done: (§1) Caco-2 cells were cultured in DMEM supplemented with 20% FBS, 1% non-essential amino acids, and 1% penicillin-streptomycin. Caco-2 cells were seeded onto collagen-coated 12-Transwell membranes at a density of 5 × 10^5 cells/mL and incubated under optimal conditions (maintained at 37 °C in a humidified atmosphere with 5% CO2/95% air) for 21 days. The culture medium was replaced every second day. For the experiments, after the growth medium was removed, the attached cells were washed with pre-warmed HBSS (pH 7.4) and pre-incubated with HBSS for 20 min at 37 °C. The integrity of the cell monolayers was evaluated before and after the permeability experiments by measuring transepithelial electrical resistance (TEER) values using an epithelial volt/ohm meter (World Precision Instruments, Sarasota, FL, USA). Caco-2 cells with TEER values higher than 300 Ω∙cm^2 were used for permeability experiments, and alterations in TEER values were less than 10% in all cases (i.e., 417.3 ± 6.3 Ω∙cm^2 and 400.8 ± 3.5 Ω∙cm^2, before and after the permeability experiments, respectively).
(§2) To determine the apical to basal (A to B) permeability of tegoprazan, 0.5 mL of HBSS containing 10 µM tegoprazan and 1.5 mL of fresh HBSS were added to the apical and basal side of the insert, respectively. The insert was transferred to a new well that contained 1.5 mL of fresh HBSS every 15 min, for 1 h. Aliquots (0.3 mL) on the basal side were transferred to fresh tubes and stored at −80 °C until further analysis. To investigate B-to-A permeability, 1.5 mL of HBSS containing 10 µM tegoprazan and 0.5 mL of fresh HBSS were added to the basal and apical sides of the insert, respectively. Aliquots (0.3 mL) on the apical side were transferred to fresh tubes, and 0.3 mL of pre-warmed fresh HBSS was replaced every 15 min for 1 h. The transport study was performed for 1 h based on the linearity of the cumulative transported tegoprazan amount versus transport time. The cumulative transported amount was calculated as the sum of transported amounts for 0–15 min, 15–30 min, 30–45 min, and 45–60 min, and the transport rate of tegoprazan was the slope of the regression line derived from the cumulative transported amount versus time plot. The apparent permeability (Papp) was calculated from the following Equation (2):(2) Papp(10^−6cm/s)=transport rate (nmol/min)/concentration (μM)× area(cm^2)×60 s
(§3) Caco-2 and rCYP samples were quantified using LC-MS/MS (UPLC® I-class coupled with TQ-MS (Waters, Milford, MA, USA). The mobile phase comprised (a) 0.1% formic acid and (b) acetonitrile containing 0.1% formic acid. Gradient elution at a flow rate of 0.3 mL/min was applied. Tegoprazan, M1, and the internal standard (tegoprazan-d6) were optimized in electrospray ionization positive mode. Acetonitrile with 0.1 μM of tegoprazan-d6 was added to the collected Caco-2 or rCYP samples. Then, processed samples were centrifuged at 13,000× g for 20 min. After centrifugation, 100 μL of supernatant was transferred to an LC-MS vial and analyzed using LC-MS/MS. The analytical method was validated based on the Bioanalytical Method Validation Guidance for Industry published by the US Food and Drug Administration and the Guideline on Bioanalytical Method Validation published by the Korean Ministry of Food and Drug Safety (MFDS). Linearity was in the range of 0.1–20 µM, and the inter-batch accuracy and precision were in the ranges of 91.8–101.3% and 2.3–8.9%, respectively. The stability of tegoprazan was evaluated, and it satisfied the acceptance criteria (coefficient of variances was within 15%) under variable conditions including reinjection, processed sample stability (PSS), and short-term stability for the stock and sample.

In a further series the test system is Caco-2 cells. As to the kind of experiment: Caco-2 permeability assay. To be noted: pH 7.4/7.4, 10 µM; for Papp / Transport Rate: single replicates; for Recovery: single replicates A-C. The format is in vitro ADME. How it is done:
as §1, §2, §3
In general terms: Caco-2 monolayers are a common model of the intestinal barrier.

Series [2] can be described thus: Microsomal metabolic stability in human liver microsomes. The format is in vitro ADME. How it is done:
The NADPH-generating system, glucose 6-phosphate (3.3 mM), 0.1 M potassium phosphate (pH 7.4), and human liver microsomes (HLMs; 0.5 mg/mL) were combined and incubated at 37 °C for 5 min. The organic content in the reaction mixture was 0.01% DMSO and less than 1% acetonitrile. Then, 1 μM tegoprazan and M1 were added to the reaction tube (total volume: 160 μL) and incubated at 37 °C for 0, 5, 15, 30, and 60 min. To terminate the reaction, 320 μL of acetonitrile containing an internal standard (100 ng/mL carbamazepine) was added to each sample. All experiments were performed in triplicate. The samples were vortexed for 5 min and centrifuged at 3000 rpm at 4 °C for 10 min. The concentrations of tegoprazan and M1 were determined by liquid chromatography–tandem mass spectrometry (LC–MS/MS). The concentrations of tegoprazan and M1 at 0 min were used to assess metabolism by HLMs based on changes in drug concentration over time. The terminal slope of linear regression was used to calculate the intrinsic clearance (CLint) of tegoprazan and M1. For the in vitro HLM system, CLint was calculated using Equation (1). CLint,mic (μL/min/mg protein) = k × Vincubation/Cincubation(1) where Vincubation is the incubation volume and Cincubation is the concentration of the microsomal protein.
Background: Microsomes from liver hold many membrane-bound enzymes, among them those of drug oxidation.

The next series relates to CYP3A4. Details: method as in ref 17, 18 = [17]; 17. Tegoprazan (K-CAB) Available online: https://pdfslide.net/reader/f/tegoprazan-k-cab-2019-02-08-tegoprazan-metabolic-pathway-75-by-cyp3a4 (accessed on 10 December 2020) || [18]; PMID 34575565; doi:10.3390/pharmaceutics13091489; 18. Yoon D.Y. Lee S. Jang I.-J. Kim M. Lee H. Kim S. Kim B. Song G.S. Rhee S.-J. Prediction of Drug–Drug Interaction Potential of Tegoprazan Using Physiologically Based Pharmacokinetic Modeling and Si. To be noted: cited from earlier work.

For `Cc1nc2cc(C(=O)N(C)C)cc(O[C@H]3CCOc4cc(F)cc(F)c43)c2[nH]1` [tegoprazan], the apparent permeability coefficient (Papp) at 1 h, 10 µM in series [1] (Caco-2, pH 7.4, A to B, pH 7.4/7.4, 10 µM, read-out: Papp, Mean) turned out to be 12.5 ×10⁻⁶ cm/s; in series [1] (Caco-2, pH 7.4, A to B, pH 7.4/7.4, 10 µM, single replicates, read-out: Papp), 13.4 ×10⁻⁶ cm/s; in series [1] (Caco-2, pH 7.4, B to A, pH 7.4/7.4, 10 µM, read-out: Papp, Mean) it was 11.7 ×10⁻⁶ cm/s; in series [1] (Caco-2, pH 7.4, B to A, pH 7.4/7.4, 10 µM, single replicates, read-out: Papp), 11.4 ×10⁻⁶ cm/s; in series [1] (Caco-2, pH 7.4, initial model value (experimental), read-out: Papp,caco-2), 12.5 ×10⁻⁶ cm/s. In addition, the recovery at 1 h, 10 µM in series [1] (Caco-2, pH 7.4, A to B, pH 7.4/7.4, 10 µM, read-out: Recovery, Mean) is 84.5%; in series [1] (Caco-2, pH 7.4, A to B, pH 7.4/7.4, 10 µM, single replicates A-C, read-out: Recovery), 82.7%; in series [1] (Caco-2, pH 7.4, B to A, pH 7.4/7.4, 10 µM, read-out: Recovery, Mean) it was 84.3%; in series [1] (Caco-2, pH 7.4, B to A, pH 7.4/7.4, 10 µM, single replicates A-C, read-out: Recovery), 85.9%. In addition, the apparent permeability coefficient (Papp) in the series on Caco-2 cells (A to B) is 11.01 ×10⁻⁶ cm/s and 13.23 ×10⁻⁶ cm/s; with Caco-2 cells (B to A), 10.36 ×10⁻⁶ cm/s and 13.36 ×10⁻⁶ cm/s. In addition, the “Transport Rate” value in the series on Caco-2 cells (A to B) was 0.56 nmol/h and 0.48 nmol/h; in the series on Caco-2 cells (B to A), 0.49 nmol/h and 0.46 nmol/h and 0.53 nmol/h. The Recovery was 86.4% in the series with Caco-2 cells (A to B); 88.7% and 78.3% in the series on Caco-2 cells (B to A). For the same molecule, the “HLM intrinsic clearance (CLint,HLM)” value in series [2] (1 μM, HLM 0.5 mg/mL with NADPH, experimental data) is 15.96 μL/min/mg protein. In addition, the “percentage remaining after incubation” value in series [2] (control sample without NADPH) was 99.54% ± 5.32. In addition, the microsomal CLint at 1 μM in series [2] (human, human liver microsomes, pH 7.4, 1 μM, HLM 0.5 mg/mL with NADPH, experimental data, read-out: HLM intrinsic clearance (CLint,HLM)) came out at 16 µL/min/mg. In addition, in the series with CYP3A4, the “metabolic fraction by CYP3A4 of total hepatic clearance” value is reported as “approximately 75%”.

For orientation: Papp means the rate of passage across a membrane or cell layer, normalised by area and donor concentration.
